PMC9725750, “The clinical pharmacology of tafenoquine in the radical cure of Plasmodium vivax malaria: An individual patient data meta-analysis” (eLife, 2022)

Legend:
CYP2D6 = CYP2D6 activity score (poor vs normal/extensive metabolisers): association with recurrence and half-life; type: in vivo, human
From the text: CYP2D6 genotyping data were available for patients enrolled in DETECTIVE part 2 and GATHER. We mapped CYP2D6 diplotypes to an activity score using the standard scoring system ([Caudle et al., 2020]) (note that under the updated scoring system the *10 allele has a score of 0.25 instead of 0.5). The activity score cannot be used as a linear predictor (e.g. a score of 1 cannot be interpreted as twice the metabolic activity of a score of 0.5). For this reason, to assess association with recurrence, we dichotomised the activity scores into poor metabolisers (≤0.5) versus normal/extensive metabolisers (>0.5) ([Caudle et al., 2020]).

Plasmodium vivax = experiment: Radical cure efficacy: any P. vivax recurrence within 4 months in patients, pooled DETECTIVE part 1/2 and GATHER (logistic regression and Emax models); type: in vivo, human; details: for mean recurrence proportion: empirical weight distribution
From the text: The primary endpoint for the main efficacy analyses was any P. vivax recurrence within 4 months. We chose the binary endpoint of any recurrence rather than the time to first recurrence because tafenoquine has both asexual stage antimalarial activity ([Fukuda et al., 2017]) and hypnozoiticidal activity. […] The choice of a particular cut-off for follow-up is thus a trade-off between sensitivity and specificity. Longer follow-up will increase the sensitivity of the endpoint (include more relapses) but decrease specificity (include more reinfections).
For all predictors we fitted Bayesian mixed effects logistic regression models (random intercepts for study and study site), with adjustment for day 0 parasitaemia (log transformed). Logistic regression allows inference of the odds-ratio for recurrence for the predictive variable of interest, assuming a linear relationship between the predictive variable and log-odds for recurrence.
For the mg/kg dose (the primary predictor of interest), the dose-response relationship was then assessed under a Bayesian Emax model, where the dose-dependent logit probability of recurrence is defined as: Emax(d,x)=α+βx+δd^k/d^k+γ^k,
The Emax model was also fitted with random intercepts for study and study site.
To determine the main predictors of recurrence, we fitted a multivariable penalised Bayesian logistic regression model. This included the following variables as predictors: the tafenoquine mg/kg dose; the plasma tafenoquine AUC[0,∞); the plasma tafenoquine Cmax; the day 7 MetHb concentration (%); the terminal elimination half-life t1/2; and the baseline parasite density. The model included random intercept terms for each study and study site. […] To avoid convergence issues resulting from the co-linearity of the predictors, the prior on all non-hierarchical coefficients was set to a Normal(0,0.5). This prior effectively shrinks the regression coefficients towards zero. It can be interpreted as follows: plausible odds-ratios for recurrence for one standard deviation change for each of the fixed effect predictors lie approximately between 0.38 and 2.7).
In a priori sensitivity analyses, all recurrences up until 6 months were included as both binary and time to event outcomes. The time to first recurrence was defined as a P. vivax episode between day 7 and day 180 with right censoring at the last recorded visit. We also re-ran the same models in patients who received a 300 mg single dose of tafenoquine only (i.e. the current recommended treatment).

[1] = Tolerability and safety: acute vomiting, severe haemolysis, haemoglobin change; type: in vivo, human; details: for Hb change to day 2/3 / Hb change to day 7±1: mean (sd)
Method: For tolerability, acute vomiting was defined as vomiting within 1 hr of tafenoquine dosing, and for safety, three definitions of severe haemolysis were assessed:
• Relative fall in haemoglobin by more than 25% to <7 g/dL • Absolute fall in haemoglobin greater than 5 g/dL • Any haemoglobin fall to <5 g/dL
Tolerability and safety events were categorised according to tafenoquine treatment and doses (no tafenoquine, <3.75 mg/kg tafenoquine, [3.75,6.25) mg/kg tafenoquine, [6.25,8.75) mg/kg tafenoquine, ≥8.75 mg/kg tafenoquine). The change in haemoglobin concentration from day 0 to the minimum on day 2 or 3, the expected day of nadir ([Commons et al., 2019]), was calculated to assess changes in haemoglobin associated with tafenoquine dose. Mixed effects models were used to explore the association between tafenoquine mg/kg dose, day 7 MetHb concentration, AUC[0,∞) , Cmax, and t1/2 adjusting for age, sex, day 0 parasite density and day 0 haemoglobin, with random effects for study and site.

[2] = cited from earlier work
[3] = parameters: method as in Shanks et al., 2001; details: ref Shanks et al., 2001, cited from earlier work
[4] = all tafenoquine-treated patients

Compound: COc1cc(C)c2c(Oc3cccc(C(F)(F)F)c3)c(OC)cc(NC(C)CCCN)c2n1 (stereo not shown) [tafenoquine]
- OR for recurrence at 4 months, poor versus normal/extensive metabolisers (CYP2D6; CYP2D6 activity score ≤0.5 vs >0.5, 95% CI 0.4 to 2.2): 0.9
- change in tafenoquine elimination half-life in poor versus normal/extensive metabolisers (CYP2D6; activity score ≤0.5, n=35 vs n=356, 95% CI –1.22 to 0.94): –0.15 days
- reduction of recurrence rates (Plasmodium vivax; 300 mg fixed dose vs no 8-aminoquinoline treatment): around 70%
- reduction of recurrence rates (Plasmodium vivax; 450 mg fixed dose vs no 8-aminoquinoline treatment): around 85%
- mean recurrence proportion (Plasmodium vivax; 450 mg fixed dose, 95% CI 3.2–11.5): 6.2%
- mean estimated recurrence proportion at 4 months (Plasmodium vivax; Emax model, 3 mg/kg): 28.5%
- mean estimated recurrence proportion at 4 months (Plasmodium vivax; Emax model, 4 mg/kg): 20.8%
- mean estimated recurrence proportion at 4 months (Plasmodium vivax; Emax model, 5 mg/kg): 14.2%
- proportion of the maximal obtainable hypnozoiticidal effect (Plasmodium vivax; Emax model, 300 mg dose in a 60 kg adult (5 mg/kg)): 70%
- reduction in the risk of P. vivax recurrence (Plasmodium vivax; Emax model, dose 7.5 mg/kg (i.e. 450 mg)): 90%
- proportion of the effect achieved with 15 mg/kg (Plasmodium vivax; Emax model, dose of approximately 7.5 mg/kg, 15 mg/kg taken as maximum tolerated single dose): 90%
- Recurrence at 4 months (Plasmodium vivax; TQ <3.75 mg/kg single dose + chloroquine, n=169): 57 (33.7) total number (%)
- Recurrence at 4 months (Plasmodium vivax; TQ [3.75,6.25) mg/kg single dose + chloroquine, n=368): 79 (21.5) total number (%)
- Recurrence at 4 months (Plasmodium vivax; TQ [6.25,8.75) mg/kg single dose + chloroquine, n=54): 4 (7.4) total number (%)
- Recurrence at 4 months (Plasmodium vivax; TQ ≥8.75 mg/kg single dose + chloroquine, n=43, 8.75 mg/kg): No recurrences
- Recurrence at 4 months (Plasmodium vivax; TQ ≥8.75 mg/kg single dose + chloroquine, n=43, listed as TQ, 8.75 mg/kg): 0 (0) total number (%)
- number needed to treat to prevent one additional recurrence of malaria (Plasmodium vivax; adult dose increased from 300 mg to 450 mg, Emax model, 95% CI 7–21): 11 patients
- effect on recurrence rates at 4 months of increasing dosing recommendation from 300mg to 450mg (Plasmodium vivax; body weight distribution as in pre-registration trials): more than halve
- OR for recurrence per mg/kg increase (Plasmodium vivax; data from DETECTIVE part 1 only, 95% CI 0.52–0.72): 0.62
- mean recurrence proportion (Plasmodium vivax; fixed 300 mg dose in an adult, 95% CI 9.6–21.7): 15.3%
- mean probability of recurrence at 4 months (Plasmodium vivax; logistic model estimate, following 5 mg/kg tafenoquine, 95% CI 0.10–0.23): 0.15
- odds-ratio (OR) for recurrence within 4 months per additional mg/kg of tafenoquine (Plasmodium vivax; logistic regression, all data n=1073, 95% CI 0.65–0.76): 0.70
- odds ratio for recurrence per absolute percentage point increase in the day 7 MetHb concentration (Plasmodium vivax; logit-Emax model adjusted for mg/kg dose, 95% CI 0.65 to 0.99): 0.81
- OR for recurrence within 4 months per mg/kg tafenoquine (Plasmodium vivax; restricted to patients who received 300 mg dose, n=469, 95% CI 0.51–0.85): 0.66
- odds ratio for recurrence at 4 months for each day increase in t1/2 (Plasmodium vivax; weight-adjusted t1/2, adjusted for mg/kg dose, 95% CI 1.06–1.25): 1.15
- additional mean haemoglobin reduction at day 2 or 3 ([1]; 300 mg dose in a 60 kg adult): around 0.1 g/dL
- additional mean reduction in Hb at day 2 or 3, relative ([1]; 300 mg dose in a 60 kg adult): < 1%
- patients who vomited within 1 hour of oral administration ([1]; 15/651 patients): 2.3%
- haemoglobin increase per one day increase in terminal elimination half-life ([1]; 95% CI 0.01 to 0.04): 0.02 g/dL
- OR for vomiting per mg/kg increase ([1]; 95% CI 0.88–1.32): 1.08
- change in haemoglobin concentration per one percent increase in day 7 MetHb ([1]; Hb on day 2 or 3, 95% CI –0.12 to –0.03): –0.08 g/dL
- Absolute Hb fall >5 g/dL ([1]; TQ 3.75-<6.25mg/kg, n=378): 1 (0.3%) n (%)
- Hb fall >25% to<7 g/dL ([1]; TQ 3.75-<6.25mg/kg, n=378): 0 (0%) n (%)
- Hb fall to <5 g/dL ([1]; TQ 3.75-<6.25mg/kg, n=378): 0 (0%) n (%)
- Absolute Hb fall >5 g/dL ([1]; TQ 6.25-<8.75mg/kg, n=56): 0 (0%) n (%)
- Hb fall >25% to<7 g/dL ([1]; TQ 6.25-<8.75mg/kg, n=56): 0 (0%) n (%)
- Hb fall to <5 g/dL ([1]; TQ 6.25-<8.75mg/kg, n=56): 0 (0%) n (%)
- Absolute Hb fall >5 g/dL ([1]; TQ <3.75mg/kg, n=171): 0 (0%) n (%)
- Hb fall >25% to<7 g/dL ([1]; TQ <3.75mg/kg, n=171): 0 (0%) n (%)
- Hb fall to <5 g/dL ([1]; TQ <3.75mg/kg, n=171): 0 (0%) n (%)
- Absolute Hb fall >5 g/dL ([1]; TQ > 8.75mg/kg, n=44): 0 (0%) n (%)
- Hb fall >25% to<7 g/dL ([1]; TQ > 8.75mg/kg, n=44): 0 (0%) n (%)
- Hb fall to <5 g/dL ([1]; TQ > 8.75mg/kg, n=44): 0 (0%) n (%)
- patients with a fall in Hb to less than 5 g/dL [1, 4]: no patients
- patients with greater than 5 g/dL fall in Hb [1, 4]: One patient
- patients with greater than 25% fall in Hb to <7 g/dL [1, 4]: no patients
- mean haemoglobin reduction at day 2 or 3 ([1]; dose increased to 450 mg): 0.15 g/dL
- Hb change to day 2/3 ([1]; TQ 3.75-<6.25mg/kg, n=378): –0.7 (0.9)
- Hb change to day 7±1 ([1]; TQ 3.75-<6.25mg/kg, n=378): –0.4 (1.1)
- Hb change to day 2/3 ([1]; TQ 6.25-<8.75mg/kg, n=56): –0.8 (0.8)
- Hb change to day 7±1 ([1]; TQ 6.25-<8.75mg/kg, n=56): –0.4 (1.0)
- Hb change to day 2/3 ([1]; TQ <3.75mg/kg, n=171): –0.6 (0.9)
- Hb change to day 7±1 ([1]; TQ <3.75mg/kg, n=171): –0.3 (0.9)
- Hb change to day 2/3 ([1]; TQ > 8.75mg/kg, n=44): –0.6 (1.1)
- Hb change to day 7±1 ([1]; TQ > 8.75mg/kg, n=44): –0.3 (1.3)
- haemoglobin change at day 2 or 3 per additional mg/kg of tafenoquine ([1]; mixed effects linear regression, 95% CI –0.04 to 0.00, P=0.02): –0.02 g/dL
- route of elimination ([2]; ref Brueckner et al., 1998): eliminated via biliary excretion with enterohepatic recirculation, but is not eliminated in the urine
- persistence of plasma concentrations above a plausible minimum inhibitory concentration for the asexual activity ([2]; ref Dow and Smith, 2017): up to three months
- terminal elimination half-life ([2]; ref Thakkar et al., 2018): about 15 days
- haemolytic outcome ([3]; female heterozygous for G6PD deficiency (A- variant), total dose 1200 mg over 3 days): severe haemolytic reaction
- drop in haemoglobin ([3]; homozygous G6PD deficient female (A- variant), 1200 mg over 3 days, remained asymptomatic): ~3 g/dL
